Assay results: patent publication US20060194769A1, “Small molecules that reduce fungal growth” (University of Vermont and State Agricultural College, priority 2005, published 2006)

Experiments:
Candida albicans = assay: Quantification of inhibition of the budded-to-hyphal-form transition and synergy assay in 10% serum media; format: cell-based; details: 37° C., synergy assay: two molecules (100 μM) added together, normalized to % hyphae formed when no molecule was added
Experimental: Cultures of Candida albicans were grown as described in Toenjes K. A. et al. (Antimicrobial Agents and Chemotherapy, 49(3):963-972, 2005). To induce hyphal growth, stationary-phase cultures were diluted into 5 ml of either YPD (1% yeast extract, 2% peptone, and 2% dextrose) plus 10% (vol/vol) fetal calf serum, Spider medium, Lee's medium (Lee, K. et al., Sabouraudia, 13:148-153, 1975), or M199 pH 8 medium (Sigma-Aldrich, St. Louis, Mo.) and grown at 37° C. with shaking at 250 rpm.
Quantification of inhibition of the budded-to-hyphal-form transition was accomplished by counting the numbers of individual budded cells versus the number of hyphae in the population. More than 100 cells were counted for each assay in duplicate and all assays were repeated four times. Individual hyphae were counted as one cell, although the hyphae usually consisted of multiple individual hyphal cells. The percentage of hyphae reported was normalized to the percentage of hyphae formed when no molecule was added.
For the synergy assay, two different molecules (100 μM) were added together and the assay was performed in 10% serum media to induce hyphal formation.

tumor = details: cited from earlier work

CN1CCN(C2=Nc3cc(Cl)ccc3Nc3ccccc32)CC1 [Clozapine, 8-Chloro-11-(4-methyl-1-piperazinyl)-5H-dibenzo[b,e][1,4]-diazepine]
% hyphae in 10% serum (Candida albicans): 33%

O=C(Nc1ccccc1)c1cc([N+](=O)[O-])ccc1Cl [GW9662, 2-Chloro-5-nitro-N-phenylbenzamide]
% hyphae in 10% serum (Candida albicans): 59%

CCOC(=O)C1=C(N)Oc2ccc(Br)cc2C1C(C#N)C(=O)OCC (centres unmarked) [HA14-1, Ethyl[2-amino-6-bromo-4-(1-cyano-2-ethoxy-2-oxoethyl)]-4H-chromene-3-carboxylate]
% hyphae in 10% serum (Candida albicans): 34%

CCC(C)C(COC(Cc1ccccc1)C(=O)NC(CCS(C)(=O)=O)C(=O)OC(C)C)NCC(N)CS [L-744,832, (2S)-2-[[(2S)-2-[(2S,3S)-2-[(2R)-2-Amino-3-mercaptopropyl]amino]-3-methylpentyl]oxy]-1-oxo-3-phenylpropyl]amino]-4-(methylsulfonyl)-butanoic Acid 1-Methylethyl Ester]
anti-tumor activity (tumor): potent anti-tumor activity

OCc1ccc(-c2nn(Cc3ccccc3)c3ccccc23)o1 [YC-1, 3-(5′-Hydroxymethyl-2′-furyl)-1-benzylindazole]
anti-tumor activity (tumor): potent anti-tumor activity
